One assay deals with T1, PI3K delta (Homo sapiens, UniProt O00329).
T1 construct: purchased Millipore, Billerica, MA, USA
Kind of assay: Luciferase-based luminescence assay (KinaseGlo), PI3K delta enzymatic activity. The conditions noted are these: for IC50: inhibition of enzymatic activity, KinaseGlo, 25 μM ATP, read-out: IC50 p110δ; for α/δ ratio: ratio of enzymatic IC50 against PI3Kα over IC50 against PI3Kδ; for β/δ ratio / γ/δ ratio: ratio of enzymatic IC50 values, Table 1. It is filed as biochemical. An outline of the steps:
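KinaseGlo luminescence measured ATP remaining after PIP2 (50 μM) phosphorylation with 25 μM ATP in HEPES pH 7.5 buffer with CHAPS and DTT. Final enzyme was 1.65 nM alpha (1 h reaction) or 6.86 nM delta (2 h reaction). IC50 was curve-fitted from 10 concentrations.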
A general note: In Kinase-Glo more light means more ATP remaining.

The target of another assay is T2, PI3Kδ (Homo sapiens, UniProt O00329).
T2 construct: endogenous in cells; host or cells: Raji (ATCC #CCL-86)
Kind of assay: ELISA assay for PI3Kδ: sandwich ELISA, phosphorylation of AKT (Thr308) in Raji cells. The conditions noted are these: for IC50: cellular, pAKT (Thr308), Raji cells, anti-Human IgM stimulation, read-out: IC50 p110δ; for α/δ ratio / β/δ ratio / γ/δ ratio: ratio of cellular IC50 values, Table 2. The format is cell-based. The procedure:
Cellular PI3Kδ activity was determined by measuring the phosphorylation of AKT (Thr308) using a sandwich enzyme-linked immunosorbant assay (ELISA). Raji (Burkitt's Lymphoma) cells were obtained from ATCC (ATCC #CCL-86). Phosphate buffer saline (PBS) contained 2.7 M NaCl, 54 mM KCl, 86 mM […] (dibasic, anhydrous), and 28 mM […] (monobasic, anhydrous) at pH 7.2. Wash buffer contained PBS supplemented with 0.05% Tween-20. Blocking buffer contained wash buffer supplemented with 1% BSA. A 10× stimulation mixture contained 5 μg/mL anti-Human IgM antibody (Sigma #12386) diluted in serum-free RPMI medium (CellGro #CV-10-040-CV). Compounds for testing were dissolved and serially diluted in 100% DMSO (total of 10 concentrations), and then diluted in serum-free RPMI to 5×final assay concentration.
Raji cells were subcultured in RPMI medium supplemented with 10% fetal bovine serum, 100 IU/mL penicillin, 100 μg/mL streptomycin, and 1×MEM non-essential amino acids. Sandwich ELISA plates were prepared by coating 96-well assay plates (Pierce #15042) with 100 μL/well capture antibody (Cell Signaling Technology #7142 or 7144) diluted in PBS. Plates were incubated overnight at 4° C., then washed with wash buffer, after which 200 μL/well blocking buffer was added to the plates and incubated at room temperature for at least 2 hrs. Raji cells were resuspended in serum-free RPMI medium and seeded into V-bottom, 2-mL 96-well blocks (Corning #3961) at 10^6 cells/well, then incubated for 2 hrs in a 37° C., 5% CO2 incubator. Compound treatment was performed by adding the 5× compound mixture to the cells and incubating for 2 hrs at 37° C., 5% CO2, after which the 10× stimulation mixture was added to the plates and incubated for 30 min at 37° C., 5% CO2. Cells were pelleted by centrifuging plates at 1500 RPM for 5 min at room temperature. Media was carefully removed and cells were lysed by adding 100 μL/well cell lysis buffer (Cell Signaling Technology #9803) supplemented with protease and phosphatase inhibitors (Thermo Fisher #78443). Plates were incubated on ice for 30 min, then the lysates (80 μL for pAKT^T308, 10 μL for total AKT) were transferred to prepared assay plates and incubated at 4° C. overnight. After washing plates with wash buffer, 100 μL/well detection antibody (Cell Signaling Technology #7142 or 7144) diluted in blocking buffer was added to the plates and incubated for 1 hr at 37° C. Plates were washed and 100 μL/well of HRP-conjugated secondary antibody (Cell Signaling Technology #7142 or 7144) diluted in blocking buffer was added to plates and incubated for 1 hr at room temperature. Plates were washed with wash buffer and 100 μL/well of luminescent substrate was added to plates. After 1 min on a plate shaker at medium speed, luminescence was read on a Wallac Victor2 plate reader. IC50 values were determined by curve fitting using a Collaborative Drug Discovery database (www.collaborativedrug.com).
A general note: In an ELISA, binding on a coated surface is turned into a signal by an enzyme label.

T1 sequence (O00329 whole entry, species assumed): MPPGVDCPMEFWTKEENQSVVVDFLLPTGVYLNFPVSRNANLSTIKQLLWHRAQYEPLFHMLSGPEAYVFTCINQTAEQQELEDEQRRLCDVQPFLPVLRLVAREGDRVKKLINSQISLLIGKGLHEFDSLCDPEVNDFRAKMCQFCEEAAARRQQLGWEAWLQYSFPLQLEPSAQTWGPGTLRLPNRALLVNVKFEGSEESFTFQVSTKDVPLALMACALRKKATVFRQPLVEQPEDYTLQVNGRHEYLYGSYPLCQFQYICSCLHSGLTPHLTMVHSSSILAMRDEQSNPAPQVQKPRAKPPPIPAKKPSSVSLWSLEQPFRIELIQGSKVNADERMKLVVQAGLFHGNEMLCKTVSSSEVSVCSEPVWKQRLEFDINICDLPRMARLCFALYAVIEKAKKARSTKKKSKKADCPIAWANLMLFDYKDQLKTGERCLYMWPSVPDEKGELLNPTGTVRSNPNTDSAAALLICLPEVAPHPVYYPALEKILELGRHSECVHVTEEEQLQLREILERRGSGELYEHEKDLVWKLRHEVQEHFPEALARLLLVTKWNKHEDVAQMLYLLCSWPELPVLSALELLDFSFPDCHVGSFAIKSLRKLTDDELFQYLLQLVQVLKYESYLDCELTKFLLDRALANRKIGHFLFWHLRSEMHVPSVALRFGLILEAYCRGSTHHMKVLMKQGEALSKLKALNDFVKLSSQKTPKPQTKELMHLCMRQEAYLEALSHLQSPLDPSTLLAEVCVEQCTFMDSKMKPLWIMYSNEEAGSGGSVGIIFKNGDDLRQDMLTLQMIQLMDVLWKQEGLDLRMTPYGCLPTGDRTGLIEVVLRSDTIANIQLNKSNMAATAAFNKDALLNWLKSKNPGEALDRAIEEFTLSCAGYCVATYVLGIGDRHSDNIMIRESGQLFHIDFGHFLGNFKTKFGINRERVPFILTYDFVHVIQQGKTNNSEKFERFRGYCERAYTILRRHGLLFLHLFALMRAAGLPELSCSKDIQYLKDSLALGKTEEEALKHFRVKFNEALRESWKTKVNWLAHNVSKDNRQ
T1 sequence (P27986 whole entry partner, species assumed): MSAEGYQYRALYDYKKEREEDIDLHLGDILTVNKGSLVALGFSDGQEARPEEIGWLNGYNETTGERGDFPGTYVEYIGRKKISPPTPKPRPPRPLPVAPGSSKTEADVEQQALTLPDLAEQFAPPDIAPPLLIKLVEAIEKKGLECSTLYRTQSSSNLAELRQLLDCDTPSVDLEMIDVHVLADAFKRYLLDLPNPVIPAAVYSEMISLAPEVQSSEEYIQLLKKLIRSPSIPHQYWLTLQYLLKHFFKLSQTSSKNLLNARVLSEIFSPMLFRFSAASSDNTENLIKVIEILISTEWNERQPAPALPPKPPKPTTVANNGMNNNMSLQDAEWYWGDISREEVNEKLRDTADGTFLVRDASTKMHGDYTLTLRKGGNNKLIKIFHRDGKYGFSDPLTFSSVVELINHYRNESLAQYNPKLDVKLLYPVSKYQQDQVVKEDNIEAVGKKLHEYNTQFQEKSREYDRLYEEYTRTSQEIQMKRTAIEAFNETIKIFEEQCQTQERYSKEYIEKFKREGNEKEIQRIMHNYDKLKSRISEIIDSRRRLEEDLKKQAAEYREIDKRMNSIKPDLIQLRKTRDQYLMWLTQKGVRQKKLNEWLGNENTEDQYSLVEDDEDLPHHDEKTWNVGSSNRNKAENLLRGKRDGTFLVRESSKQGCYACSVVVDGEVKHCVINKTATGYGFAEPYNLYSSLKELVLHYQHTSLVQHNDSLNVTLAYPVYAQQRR
T2 sequence (O00329 whole entry): as the sequence (O00329 whole entry, species assumed) above
T2 sequence (P27986 whole entry partner): as the sequence (P27986 whole entry partner, species assumed) above

The term IC50 denotes the concentration needed to halve the response being measured. Consider `CC(C)(Cc1ccccc1-c1cccnc1)Nc1nc(N2CCOCC2)nc(-n2c(C(F)F)nc3ccccc32)n1` [Compound A40, 4-(2-(difluoromethyl)-1H-benzo[d]imidazol-1-yl)-N-(2-methyl-1-(2-(pyridin-3-yl)phenyl)propan-2-yl)-6-morpholino-1,3,5-triazin-2-amine], for which, on PI3K delta, the IC50 was not above 100 nM, the α/δ ratio result is given as “A’”, the β/δ ratio entry is “D’” and the γ/δ ratio entry is on record as “A’”. Moreover, on PI3Kδ, the IC50 was not above 100 nM, the α/δ ratio entry was “A’”, the β/δ ratio result was “A’” and the γ/δ ratio result is listed as “A’”.

With `COc1cc(-c2ccccc2CC(C)(C)Nc2nc(N3CCOCC3)nc(-n3c(C(F)F)nc4ccccc43)n2)ccn1` [Compound A41, 4-(2-(difluoromethyl)-1H-benzo[d]imidazol-1-yl)-N-(1-(2-(2-methoxypyridin-4-yl)phenyl)-2-methylpropan-2-yl)-6-morpholino-1,3,5-triazin-2-amine], on PI3K delta, the IC50 was not above 100 nM, the α/δ ratio result is “A’”, the β/δ ratio result is listed as “A’” and the γ/δ ratio entry is given as “A’”. In addition, at PI3Kδ, the half-maximal inhibitory concentration (IC50) is not above 100 nM, the α/δ ratio result is given as “A’”, the β/δ ratio entry is recorded as “A’” and the γ/δ ratio result is recorded as “A’”.

As to `Cc1cc(-c2ccccc2CC(C)(C)Nc2nc(N3CCOCC3)nc(-n3c(C(F)F)nc4ccccc43)n2)ccn1` [Compound A43, 4-(2-(difluoromethyl)-1H-benzo[d]imidazol-1-yl)-N-(2-methyl-1-(2-(2-methylpyridin-4-yl)phenyl)propan-2-yl)-6-morpholino-1,3,5-triazin-2-amine], at PI3K delta, the IC50 is not above 100 nM, the α/δ ratio result is given as “A’”, the β/δ ratio entry is reported as “D’” and the γ/δ ratio result is “A’”. Besides, at PI3Kδ, the IC50 was not above 100 nM, the α/δ ratio result was “A’”, the β/δ ratio result is recorded as “A’” and the γ/δ ratio result is reported as “A’”.

In the case of `CC(C)(Cc1ccccc1-c1cn[nH]c1)Nc1nc(N2CCOCC2)nc(-n2c(C(F)F)nc3ccccc32)n1` [Compound A44, 4-(2-(difluoromethyl)-1H-benzo[d]imidazol-1-yl)-N-(1-(2-(1H-pyrazol-4-yl)phenyl)-2-methylpropan-2-yl)-6-morpholino-1,3,5-triazin-2-amine], on PI3K delta, the 50% inhibitory concentration (IC50) was not above 100 nM, the α/δ ratio result is “A’”, the β/δ ratio entry was “D’” and the γ/δ ratio entry is “A’”. Further, at PI3Kδ, the IC50 was not above 100 nM, the α/δ ratio entry was “A’”, the β/δ ratio entry is “A’” and the γ/δ ratio result is given as “A’”.

With `Cn1cc(-c2ccccc2CC(C)(C)Nc2nc(N3CCOCC3)nc(-n3c(C(F)F)nc4ccccc43)n2)cn1` [Compound A45, 4-(2-(difluoromethyl)-1H-benzo[d]imidazol-1-yl)-N-(2-methyl-1-(2-(1-methyl-1H-pyrazol-4-yl)phenyl)propan-2-yl)-6-morpholino-1,3,5-triazin-2-amine], at PI3K delta, the concentration for half-maximal inhibition (IC50) was not above 100 nM, the α/δ ratio entry is “A’”, the β/δ ratio result was “D’” and the γ/δ ratio result is recorded as “A’”. For the same compound, on PI3Kδ, the IC50 is not above 100 nM, the α/δ ratio result was “A’”, the β/δ ratio entry is given as “B’” and the γ/δ ratio entry is reported as “A’”.

On to `Cn1nccc1-c1ccccc1CC(C)(C)Nc1nc(N2CCOCC2)nc(-n2c(C(F)F)nc3ccccc32)n1` [Compound A46, 4-(2-(difluoromethyl)-1H-benzo[d]imidazol-1-yl)-N-(2-methyl-1-(2-(1-methyl-1H-pyrazol-5-yl)phenyl)propan-2-yl)-6-morpholino-1,3,5-triazin-2-amine], for which, on PI3K delta, the IC50 is not above 100 nM, the α/δ ratio entry is “A’”, the β/δ ratio result is reported as “D’” and the γ/δ ratio result was “A’”. For the same compound, on PI3Kδ, the concentration for half-maximal inhibition (IC50) is not above 100 nM, the α/δ ratio entry is listed as “A’”, the β/δ ratio entry is reported as “B’” and the γ/δ ratio entry was “A’”.

Take `Cc1cccc(CC(C)(C)Nc2nc(N3CCOCC3)nc(-n3c(C(F)F)nc4ccccc43)n2)c1` [Compound A49, 4-(2-(difluoromethyl)-1H-benzo[d]imidazol-1-yl)-N-(2-methyl-1-m-tolylpropan-2-yl)-6-morpholino-1,3,5-triazin-2-amine]: on PI3K delta, the IC50 is not above 100 nM, the α/δ ratio result is given as “A’”, the β/δ ratio entry is on record as “D’” and the γ/δ ratio entry was “C’”. In addition, at PI3Kδ, the IC50 is not above 100 nM, the α/δ ratio entry was “A’”, the β/δ ratio entry is “B’” and the γ/δ ratio entry was “A’”.

On to `COc1cc(CC(C)(C)Nc2nc(N3CCOCC3)nc(-n3c(C(F)F)nc4ccccc43)n2)ccc1F` [Compound A50, 4-(2-(difluoromethyl)-1H-benzo[d]imidazol-1-yl)-N-(1-(4-fluoro-3-methoxyphenyl)-2-methylpropan-2-yl)-6-morpholino-1,3,5-triazin-2-amine], for which, at PI3K delta, the half-maximal inhibitory concentration (IC50) is not above 100 nM, the α/δ ratio entry is listed as “A’”, the β/δ ratio entry is “C’” and the γ/δ ratio entry was “A’”. Moreover, on PI3Kδ, the IC50 was not above 100 nM, the α/δ ratio result was “A’”, the β/δ ratio result was “A’” and the γ/δ ratio entry was “A’”.

For `CC(C)(Cc1ccc(F)cc1F)Nc1nc(N2CCOCC2)nc(-n2c(C(F)F)nc3ccccc32)n1` [Compound A51, 4-(2-(difluoromethyl)-1H-benzo[d]imidazol-1-yl)-N-(1-(2,4-difluorophenyl)-2-methylpropan-2-yl)-6-morpholino-1,3,5-triazin-2-amine], on PI3K delta, the half-maximal inhibitory concentration (IC50) was not above 100 nM, the α/δ ratio entry was “A’”, the β/δ ratio result is recorded as “B’” and the γ/δ ratio entry is reported as “C’”. Moreover, at PI3Kδ, the half-maximal inhibitory concentration (IC50) was not above 100 nM, the α/δ ratio result was “A’”, the β/δ ratio entry is recorded as “D’” and the γ/δ ratio entry is reported as “A’”.

Regarding `CC(C)(Cc1c(F)cccc1F)Nc1nc(N2CCOCC2)nc(-n2c(C(F)F)nc3ccccc32)n1` [Compound A52, 4-(2-(difluoromethyl)-1H-benzo[d]imidazol-1-yl)-N-(1-(2,6-difluorophenyl)-2-methylpropan-2-yl)-6-morpholino-1,3,5-triazin-2-amine], at PI3K delta, the half-inhibitory concentration (IC50) is not above 100 nM, the α/δ ratio result is given as “C’”, the β/δ ratio result is given as “B’” and the γ/δ ratio result is on record as “D’”. At PI3Kδ, the half-inhibitory concentration (IC50) is not above 100 nM, the α/δ ratio result was “A’”, the β/δ ratio entry is listed as “D’” and the γ/δ ratio result is “A’”.

Regarding `CC(C)(Cc1ccccc1-c1ccccc1F)Nc1nc(N2CCOCC2)nc(-n2c(C(F)F)nc3ccccc32)n1` [Compound A59, 4-(2-(difluoromethyl)-1H-benzo[d]imidazol-1-yl)-N-(1-(2′-fluorobiphenyl-2-yl)-2-methylpropan-2-yl)-6-morpholino-1,3,5-triazin-2-amine], on PI3K delta, the IC50 was not above 100 nM, the α/δ ratio entry was “A’”, the β/δ ratio entry is listed as “A’” and the γ/δ ratio entry was “A’”. In addition, on PI3Kδ, the IC50 was not above 100 nM, the α/δ ratio entry was “A’”, the β/δ ratio entry is recorded as “A’” and the γ/δ ratio result is “A’”.

The values above are taken from patent US12059422B2 (MEI Pharma, Inc., priority 2011, dated 2024).
